We go through two compounds from US20260001841A1, “PREPARATION OF STABLE PSILOCIN SALTS, ESTERS AND CONJUGATES AND USES THEREOF” (LOBE SCIENCES LTD., priority 2022, published 2026).

“And” between values parts separate entries of the source, which are not always exact repeats. Identical values can stand only once. “Also recorded” adds a separate entry of the source.

For data set [1] the following is noted: doses as low as 5 mg psilocybin (about 2 mg psilocin); cited from earlier work.
For data set [2] the following is noted: psilocin from psilocybin dosing; cited from earlier work.
The subject of the next data set is healthy subjects. Briefly: Phase one single-dose study of psilocin mucic acid conjugate capsules: psychiatrist mood assessment and mini mental state examination (MMSE). The note with it: single oral capsule, 4.05 mg conjugate equivalent to 2 mg psilocin.
Data set [3] is described as follows: Stability studies on psilocin mucate capsule (appearance, HPLC assay and impurities, TM-022-0392). It counts as physicochemical. To be noted: for Appearance, Packaging: Labeled, amber glass bottle with white closure containing 15 partially filled white opaque capsules / Appearance, Product: White to light brown powder partially filling white opaque capsules / Total Impurities TM-22-0392 / Impurities TM-22-0392, individual impurities / Assay TM-22-0392 (% Label Claim): capsule; for Assay TM-22-0392 (% Label Claim): specification 90.0-110.0%. The protocol:
Additional stability studies were performed on psilocin mucate (also known as psilocin mucic acid salt or conjugate or psilocin galactaric acid salt or conjugate) capsule.
Appearance was evaluated by viewing of the sample on a watchglass over a black and white background.
Assay conditions for Test/Method TM-022-0392 assessing stability and impurities were as follows: • Mobile phase: MPA: 945 mL water, 5 mL H3PO4, PH to 5.7 with NaOH; MPB: Acetonitrile • Diluent: 80:20 Water:MeOH • Standard: 0.4 mg/mL Psilocin Mucic RS in Diluent • Sample: 0.4 mg/mL Psilocin Mucic API in Diluent HPLC Conditions are depicted in Table 3.
Calculations were against a bracketing external standard.
Identity of psilocin mucate was verified by ultraviolet (UV) assessment, wherein the UV spectrum of the main peak in the standard matched the UV spectrum of the main peak in the sample and by retention time wherein the retention time ratio was 0.98-1.02.

In the case of `CN(C)CCc1c[nH]c2cccc(OP(=O)(O)O)c12` [psilocybin, Psilocybin], in data set [1], the “Adverse psychological effects reported” value is given as “hallucinogenic effects coupled with increased anxiety”. Also, in data set [2], the Estimated dose-normalized bioavailability is 52.7%.

As for psilocin mucate, in the data set on healthy subjects (one entry per subject (01-10)), the “FEELING STATUS (mood assessed by psychiatrist)” value is listed as “Feel calm, less thoughts, happier mood; also recorded: Euphoric, better mood, it helps with life stress; also recorded: Euphories, better mood, sleepy, feel time is slower; also recorded: Sleepy, better thoughts, less worried in general; also recorded: Did not feel change in mood but feeling cold extremities; also recorded: More relaxed, want to drink sweet tea, better mood; also recorded: Better mood, feels hyper sexual; also recorded: Felt high mood, now they feel in good way,, they would love to; also recorded: Less anxious, better mood, increase their appetite; also recorded: Feel little beet happier, better energy”. Besides, in the data set with healthy subjects (one value per subject (01-10), scores expected below 25 with a hallucinogenic substance), the MMSE score was 28 (3×) and 27 (2×) and 30 (3×) and 29 (2×). The “Time demonstrated to be stable” value in data set [3] is “at least 7 months”. Further, in data set [3] (7 Months), the “Appearance, Packaging: Labeled, amber glass bottle with white closure containing 15 partially filled white opaque capsules” value is recorded as “Conforms”; the “Appearance, Product: White to light brown powder partially filling white opaque capsules” value is recorded as “Conforms”; the “Total Impurities TM-22-0392” value is reported as less than 0.05%; the “Assay TM-22-0392 (% Label Claim)” value stood at 101.7%. In addition, in data set [3] (7 Months, all impurities), the “Impurities TM-22-0392, individual impurities” value is “All <0.05%”. For the same compound, in data set [3] (Initial), the “Appearance, Packaging: Labeled, amber glass bottle with white closure containing 15 partially filled white opaque capsules” value is on record as “Conforms”; the “Appearance, Product: White to light brown powder partially filling white opaque capsules” value was “Conforms”; the “Total Impurities TM-22-0392” value worked out at 0.08%; the “Assay TM-22-0392 (% Label Claim)” value was found to be 100.8%. Moreover, the “Impurities TM-22-0392, individual impurities” value in data set [3] (Initial, impurity at RRT1.12) is listed as “RRT1.12/0.08%”.
